Experimental findings from US20090074824A1, “STABLE NANOCAPSULE SYSTEMS FOR THE ADMINISTRATION OF ACTIVE MOLECULES” (priority 2006, published 2009) are described below.

SMILES strings stand for the structures. Values after ≈ are worked out from the molar mass of the structure shown.

By solubility is commonly meant the concentration that dissolves in the medium under given conditions. Higher therefore signals much dissolved substance.

This data set can be described thus: physchem.

As to `CCCCC(=O)O[C@]1(C(=O)CO)[C@@H](C)C[C@H]2[C@@H]3CCC4=CC(=O)C=C[C@]4(C)[C@@]3(F)[C@@H](O)C[C@@]21C` [betamethasone valerate, Betamethasone valerate], the concentration in solution (solubility) came to 5 µg/mL (≈ 10.5 µM).
